Data as given in the NIST ThermoML archive (doi:10.1016/j.fluid.2016.02.009).

Conditions: Liquid, Vibrating tube method

CCOC(C)(C)C [2-ethoxy-2-methylpropane]
Conditions | mass density [kg/m3]
283.15 K, 100 kPa | 751.23
283.15 K, 5000 kPa | 756.42
283.15 K, 10000 kPa | 761.33
283.15 K, 15000 kPa | 765.98
283.15 K, 20000 kPa | 770.36
283.15 K, 25000 kPa | 774.54
283.15 K, 30000 kPa | 778.52
283.15 K, 35000 kPa | 782.33
283.15 K, 40000 kPa | 785.98
283.15 K, 45000 kPa | 789.49
283.15 K, 50000 kPa | 792.89
283.15 K, 55000 kPa | 796.17
283.15 K, 60000 kPa | 799.33
283.15 K, 65000 kPa | 802.42
288.15 K, 100 kPa | 746.2
288.15 K, 5000 kPa | 751.53
288.15 K, 10000 kPa | 756.63
288.15 K, 15000 kPa | 761.42
288.15 K, 20000 kPa | 765.93
288.15 K, 25000 kPa | 770.23
288.15 K, 30000 kPa | 774.31
288.15 K, 35000 kPa | 778.21
288.15 K, 40000 kPa | 781.97
288.15 K, 45000 kPa | 785.55
288.15 K, 50000 kPa | 789.02
288.15 K, 55000 kPa | 792.37
288.15 K, 60000 kPa | 795.56
288.15 K, 65000 kPa | 798.71
293.15 K, 100 kPa | 741.05
293.15 K, 5000 kPa | 746.6
293.15 K, 10000 kPa | 751.89
293.15 K, 15000 kPa | 756.83
293.15 K, 20000 kPa | 761.5
293.15 K, 25000 kPa | 765.92
293.15 K, 30000 kPa | 770.13
293.15 K, 35000 kPa | 774.13
293.15 K, 40000 kPa | 777.97
293.15 K, 45000 kPa | 781.65
293.15 K, 50000 kPa | 785.19
293.15 K, 55000 kPa | 788.63
293.15 K, 60000 kPa | 791.91
293.15 K, 65000 kPa | 795.1
298.15 K, 100 kPa | 735.9
298.15 K, 5000 kPa | 741.67
298.15 K, 10000 kPa | 747.14
298.15 K, 15000 kPa | 752.27
298.15 K, 20000 kPa | 757.08
298.15 K, 25000 kPa | 761.61
298.15 K, 30000 kPa | 765.96
298.15 K, 35000 kPa | 770.04
298.15 K, 40000 kPa | 773.96
298.15 K, 45000 kPa | 777.75
298.15 K, 50000 kPa | 781.37
298.15 K, 55000 kPa | 784.85
298.15 K, 60000 kPa | 788.21
298.15 K, 65000 kPa | 791.48
303.15 K, 100 kPa | 730.67
303.15 K, 5000 kPa | 736.68
303.15 K, 10000 kPa | 742.38
303.15 K, 15000 kPa | 747.69
303.15 K, 20000 kPa | 752.63
303.15 K, 25000 kPa | 757.33
303.15 K, 30000 kPa | 761.74
303.15 K, 35000 kPa | 765.95
303.15 K, 40000 kPa | 769.98
303.15 K, 45000 kPa | 773.86
303.15 K, 50000 kPa | 777.57
303.15 K, 55000 kPa | 781.12
303.15 K, 60000 kPa | 784.56
303.15 K, 65000 kPa | 787.89
308.15 K, 100 kPa | 725.44
308.15 K, 5000 kPa | 731.69
308.15 K, 10000 kPa | 737.6
308.15 K, 15000 kPa | 743.07
308.15 K, 20000 kPa | 748.18
308.15 K, 25000 kPa | 753.01
308.15 K, 30000 kPa | 757.57
308.15 K, 35000 kPa | 761.9
308.15 K, 40000 kPa | 766.03
308.15 K, 45000 kPa | 769.97
308.15 K, 50000 kPa | 773.76
308.15 K, 55000 kPa | 777.4
308.15 K, 60000 kPa | 780.9
308.15 K, 65000 kPa | 784.29
313.15 K, 100 kPa | 720.14
313.15 K, 5000 kPa | 726.68
313.15 K, 10000 kPa | 732.78
313.15 K, 15000 kPa | 738.45
313.15 K, 20000 kPa | 743.71
313.15 K, 25000 kPa | 748.69
313.15 K, 30000 kPa | 753.36
313.15 K, 35000 kPa | 757.81
313.15 K, 40000 kPa | 762.03
313.15 K, 45000 kPa | 766.08
313.15 K, 50000 kPa | 769.94
313.15 K, 55000 kPa | 773.66
313.15 K, 60000 kPa | 777.23
313.15 K, 65000 kPa | 780.69
318.15 K, 100 kPa | 714.82
318.15 K, 5000 kPa | 721.59
318.15 K, 10000 kPa | 727.94
318.15 K, 15000 kPa | 733.82
318.15 K, 20000 kPa | 739.27
318.15 K, 25000 kPa | 744.39
318.15 K, 30000 kPa | 749.2
318.15 K, 35000 kPa | 753.76
318.15 K, 40000 kPa | 758.08
318.15 K, 45000 kPa | 762.23
318.15 K, 50000 kPa | 766.19
318.15 K, 55000 kPa | 769.98
318.15 K, 60000 kPa | 773.61
318.15 K, 65000 kPa | 777.13
323.15 K, 100 kPa | 709.43
323.15 K, 5000 kPa | 716.51
323.15 K, 10000 kPa | 723.13
323.15 K, 15000 kPa | 729.2
323.15 K, 20000 kPa | 734.81
323.15 K, 25000 kPa | 740.06
323.15 K, 30000 kPa | 745.02
323.15 K, 35000 kPa | 749.69
323.15 K, 40000 kPa | 754.13
323.15 K, 45000 kPa | 758.36
323.15 K, 50000 kPa | 762.39
323.15 K, 55000 kPa | 766.26
323.15 K, 60000 kPa | 770
323.15 K, 65000 kPa | 773.58
328.15 K, 100 kPa | 703.95
328.15 K, 5000 kPa | 711.38
328.15 K, 10000 kPa | 718.21
328.15 K, 15000 kPa | 724.52
328.15 K, 20000 kPa | 730.3
328.15 K, 25000 kPa | 735.75
328.15 K, 30000 kPa | 740.83
328.15 K, 35000 kPa | 745.64
328.15 K, 40000 kPa | 750.18
328.15 K, 45000 kPa | 754.48
328.15 K, 50000 kPa | 758.63
328.15 K, 55000 kPa | 762.55
328.15 K, 60000 kPa | 766.37
328.15 K, 65000 kPa | 770.52
333.15 K, 100 kPa | 698.45
333.15 K, 5000 kPa | 706.19
333.15 K, 10000 kPa | 713.35
333.15 K, 15000 kPa | 719.84
333.15 K, 20000 kPa | 725.83
333.15 K, 25000 kPa | 731.42
333.15 K, 30000 kPa | 736.64
333.15 K, 35000 kPa | 741.54
333.15 K, 40000 kPa | 746.21
333.15 K, 45000 kPa | 750.65
333.15 K, 50000 kPa | 754.86
333.15 K, 55000 kPa | 758.88
333.15 K, 60000 kPa | 762.77
333.15 K, 65000 kPa | 766.51

COC(C)(C)C [2-methoxy-2-methylpropane]
mass density [kg/m3]
Conditions | 283.15 K | 288.15 K | 293.15 K | 298.15 K | 303.15 K | 308.15 K | 313.15 K | 318.15 K | 323.15 K
100 kPa | 750.94 | 745.79 | 740.59 | 735.34 | 730.04 | 724.69 | 719.29 | 713.84 | 708.45
5000 kPa | 756.29 | 751.33 | 746.34 | 741.32 | 736.27 | 731.19 | 726.07 | 720.92 | 715.73
10000 kPa | 761.29 | 756.52 | 751.7 | 746.89 | 742.05 | 737.18 | 732.27 | 727.36 | 722.39
15000 kPa | 765.93 | 761.32 | 756.68 | 752.04 | 747.37 | 742.69 | 737.97 | 733.26 | 728.51
20000 kPa | 770.32 | 765.86 | 761.35 | 756.85 | 752.37 | 747.84 | 743.29 | 738.74 | 734.2
25000 kPa | 774.48 | 770.15 | 765.77 | 761.42 | 757.05 | 752.67 | 748.27 | 743.91 | 739.51
30000 kPa | 778.47 | 774.24 | 770.01 | 765.75 | 761.51 | 757.26 | 752.99 | 748.75 | 744.49
35000 kPa | 782.29 | 778.15 | 774 | 769.88 | 765.74 | 761.6 | 757.46 | 753.35 | 749.2
40000 kPa | 785.94 | 781.89 | 777.85 | 773.81 | 769.79 | 765.75 | 761.71 | 757.7 | 753.67
45000 kPa | 789.45 | 785.49 | 781.54 | 777.6 | 773.65 | 769.71 | 765.77 | 761.86 | 757.92
50000 kPa | 792.86 | 788.97 | 785.09 | 781.23 | 777.36 | 773.49 | 769.65 | 765.83 | 761.98
55000 kPa | 796.13 | 792.3 | 788.51 | 784.71 | 780.95 | 777.14 | 773.39 | 769.63 | 765.85
60000 kPa | 799.29 | 795.55 | 791.81 | 788.1 | 784.37 | 780.65 | 776.97 | 773.29 | 769.61
65000 kPa | 802.37 | 798.67 | 795 | 791.36 | 787.7 | 784.04 | 780.41 | 776.82 | 773.22
